Measurements as given in the NIST ThermoML archive (doi:10.1021/je700145e).
± gives the expanded uncertainty stated by the source.

Settings: Liquid

CCCCC(C)O (configuration not stated) [2-hexanol]
Settings | mass density [kg/m3]
313.13 K, 1010 kPa | 799.26 ± 0.62
313.13 K, 2006 kPa | 800.05 ± 0.64
313.13 K, 2999 kPa | 800.83 ± 0.66
313.13 K, 4008 kPa | 801.59 ± 0.68
313.13 K, 4999 kPa | 802.35 ± 0.7
313.13 K, 5986 kPa | 803.12 ± 0.72
313.13 K, 7000 kPa | 803.86 ± 0.74
313.13 K, 8010 kPa | 804.64 ± 0.77
313.13 K, 9026 kPa | 805.38 ± 0.79
313.13 K, 10004 kPa | 806.09 ± 0.81
313.13 K, 11005 kPa | 806.84 ± 0.83
313.13 K, 12001 kPa | 807.56 ± 0.85
313.13 K, 13010 kPa | 808.28 ± 0.88
313.13 K, 14002 kPa | 808.98 ± 0.9
313.13 K, 14998 kPa | 809.67 ± 0.92
313.13 K, 16001 kPa | 810.39 ± 0.94
313.13 K, 17006 kPa | 811.08 ± 0.97
313.13 K, 18000 kPa | 811.7 ± 0.99
313.13 K, 19005 kPa | 812.39 ± 1
313.13 K, 20015 kPa | 813.1 ± 1
313.13 K, 21029 kPa | 813.74 ± 1.1
313.13 K, 22004 kPa | 814.4 ± 1.1
323.09 K, 1037 kPa | 791 ± 0.63
323.09 K, 2000 kPa | 791.79 ± 0.65
323.09 K, 3010 kPa | 792.63 ± 0.67
323.09 K, 4029 kPa | 793.48 ± 0.69
323.09 K, 5004 kPa | 794.27 ± 0.71
323.09 K, 6020 kPa | 795.1 ± 0.74
323.09 K, 7007 kPa | 795.84 ± 0.76
323.09 K, 8009 kPa | 796.68 ± 0.78
323.09 K, 9017 kPa | 797.48 ± 0.81
323.09 K, 10003 kPa | 798.25 ± 0.83
323.09 K, 11001 kPa | 799 ± 0.85
323.09 K, 12000 kPa | 799.77 ± 0.88
323.09 K, 13021 kPa | 800.56 ± 0.9
323.09 K, 14001 kPa | 801.3 ± 0.92
323.09 K, 15002 kPa | 802 ± 0.94
323.09 K, 16000 kPa | 802.74 ± 0.97
323.09 K, 17004 kPa | 803.48 ± 0.99
323.09 K, 18008 kPa | 804.21 ± 1
323.09 K, 19001 kPa | 804.9 ± 1.1
323.09 K, 20011 kPa | 805.62 ± 1.1
323.09 K, 21003 kPa | 806.31 ± 1.1
323.09 K, 22004 kPa | 807.01 ± 1.1
333.04 K, 1055 kPa | 782.56 ± 0.64
333.04 K, 2007 kPa | 783.43 ± 0.66
333.04 K, 3005 kPa | 784.28 ± 0.68
333.04 K, 4007 kPa | 785.21 ± 0.71
333.04 K, 5015 kPa | 786.06 ± 0.73
333.04 K, 6009 kPa | 786.93 ± 0.75
333.04 K, 7006 kPa | 787.77 ± 0.78
333.04 K, 7998 kPa | 788.61 ± 0.8
333.04 K, 9006 kPa | 789.47 ± 0.82
333.04 K, 10004 kPa | 790.32 ± 0.85
333.04 K, 11007 kPa | 791.11 ± 0.87
333.04 K, 12012 kPa | 791.93 ± 0.9
333.04 K, 13003 kPa | 792.72 ± 0.92
333.04 K, 14008 kPa | 793.51 ± 0.95
333.04 K, 15005 kPa | 794.3 ± 0.97
333.04 K, 16001 kPa | 795.06 ± 1
333.04 K, 17006 kPa | 795.85 ± 1
333.04 K, 18010 kPa | 796.61 ± 1.1
333.04 K, 19002 kPa | 797.35 ± 1.1
333.04 K, 20000 kPa | 798.08 ± 1.1
333.04 K, 21000 kPa | 798.82 ± 1.1
333.04 K, 22004 kPa | 799.56 ± 1.2
342.98 K, 1032 kPa | 774.05 ± 0.65
342.98 K, 2015 kPa | 775.01 ± 0.67
342.98 K, 3012 kPa | 775.95 ± 0.69
342.98 K, 4017 kPa | 776.87 ± 0.72
342.98 K, 5013 kPa | 777.79 ± 0.74
342.98 K, 6012 kPa | 778.72 ± 0.77
342.98 K, 7025 kPa | 779.62 ± 0.79
342.98 K, 8000 kPa | 780.47 ± 0.82
342.98 K, 9000 kPa | 781.35 ± 0.84
342.98 K, 9996 kPa | 782.25 ± 0.87
342.98 K, 11020 kPa | 783.12 ± 0.89
342.98 K, 11999 kPa | 783.92 ± 0.92
342.98 K, 12996 kPa | 784.76 ± 0.94
342.98 K, 14007 kPa | 785.6 ± 0.97
342.98 K, 15003 kPa | 786.41 ± 1
342.98 K, 16005 kPa | 787.17 ± 1
342.98 K, 17002 kPa | 787.98 ± 1.1
342.98 K, 18010 kPa | 788.76 ± 1.1
342.98 K, 19005 kPa | 789.49 ± 1.1
342.98 K, 20010 kPa | 790.27 ± 1.1
342.98 K, 21006 kPa | 791 ± 1.2
342.98 K, 22005 kPa | 791.75 ± 1.2
352.86 K, 1053 kPa | 765.06 ± 0.66
352.86 K, 2014 kPa | 766.05 ± 0.68
352.86 K, 3019 kPa | 767.09 ± 0.71
352.86 K, 4033 kPa | 768.08 ± 0.73
352.86 K, 4996 kPa | 769.01 ± 0.76
352.86 K, 6006 kPa | 770.06 ± 0.78
352.86 K, 7013 kPa | 771.02 ± 0.81
352.86 K, 8004 kPa | 771.95 ± 0.84
352.86 K, 9035 kPa | 772.93 ± 0.86
352.86 K, 10009 kPa | 773.84 ± 0.89
352.86 K, 11007 kPa | 774.75 ± 0.92
352.86 K, 12007 kPa | 775.66 ± 0.94
352.86 K, 12999 kPa | 776.54 ± 0.97
352.86 K, 14012 kPa | 777.47 ± 1
352.86 K, 15010 kPa | 778.33 ± 1
352.86 K, 16003 kPa | 779.21 ± 1.1
352.86 K, 17002 kPa | 780.07 ± 1.1
352.86 K, 18017 kPa | 780.92 ± 1.1
352.86 K, 19005 kPa | 781.75 ± 1.1
352.86 K, 20014 kPa | 782.58 ± 1.2
352.86 K, 21013 kPa | 783.39 ± 1.2
352.86 K, 22010 kPa | 784.18 ± 1.2
362.73 K, 1075 kPa | 754.97 ± 0.67
362.73 K, 2006 kPa | 756.02 ± 0.7
362.73 K, 3018 kPa | 757.16 ± 0.72
362.73 K, 4034 kPa | 758.26 ± 0.75
362.73 K, 5016 kPa | 759.29 ± 0.78
362.73 K, 6066 kPa | 760.41 ± 0.81
362.73 K, 6998 kPa | 761.37 ± 0.83
362.73 K, 8041 kPa | 762.44 ± 0.86
362.73 K, 9014 kPa | 763.43 ± 0.89
362.73 K, 10001 kPa | 764.37 ± 0.91
362.73 K, 11026 kPa | 765.39 ± 0.94
362.73 K, 12000 kPa | 766.35 ± 0.97
362.73 K, 13010 kPa | 767.31 ± 1
362.73 K, 13999 kPa | 768.28 ± 1
362.73 K, 15006 kPa | 769.21 ± 1.1
362.73 K, 16006 kPa | 770.12 ± 1.1
362.73 K, 17005 kPa | 771.02 ± 1.1
362.73 K, 18000 kPa | 771.92 ± 1.2
362.73 K, 19003 kPa | 772.82 ± 1.2
362.73 K, 20017 kPa | 773.7 ± 1.2
362.73 K, 21006 kPa | 774.56 ± 1.2
362.73 K, 22010 kPa | 775.42 ± 1.3
